Results taken from patent US10031127B2, “Method for separating aggregates of malignant cells and aggregates from stromal cells of a malignant tumour tissue sample” (Flacod GmbH, priority 2012, dated 2018).

What was measured:
[1] = system: clusters of malignant cells and/or stromal cell clusters of malignant lung tumors (fractionated and unfractionated digestion products); assay: chemosensitivity to cisplatin, colony formation on ECM-coated culture plates; format: cell-based; conditions: 6000 nM cisplatin, 3 days incubation, most of the fractionated and unfractionated digestion products
Description: (§1) Samples were freshly resected from malignant lung tumors of various histologies, then purified and minced. Tumor tissue samples of 5 to 10 mg per 1 mL were suspended in RPMI 1640 culture medium with an FBS content of 10%. These suspensions were subjected to a collagenase digestion, preferably using Clostridium histolyticum collagenase (230 CDU/mL) for a period of 4 to 5 hours at 36° C. to 37° C., preferably at 36.5° C. Next the digested product was centrifuged at 50×g, the supernatant was discarded and the pellet was dissolved and resuspended in 1 mL fresh culture medium. Each test preparation was transferred to a Petri dish and adjusted with culture medium to a concentration corresponding to 5 to 10 mg tumor sample wet weight per 1 mL culture medium.
(§2) The cell suspension of each test preparation (test run) was picked up with a 1 mL pipette tip (another aspiration device can also be used) and then discharged again, 4 to 5 times in succession, and thereby subjected to a treatment with hydrodynamic shearing forces. Next, with the help of an inverse microscope equipped with a phase contrast lens system, cell clusters of phenotypically the same cells were detected and each was transferred to a separate culture vessel using injection cannulas no. 23 (diameter 0.6 mm, length 60-80 mm) attached to 2 mL injection syringes. […]

[2] = system: isolated stromal cell clusters of malignant lung tumors; assay: chemosensitivity to cisplatin, isolated stromal cell clusters; format: cell-based; conditions: isolated microscopically identified stromal cell clusters, in the absence of malignant cells; 3 days, 0-6000 nM cisplatin
Description: as §1, §2

`N.N.[Cl][Pt][Cl]` [cisplatin] was tested, and the “colony formation ex vivo in the presence of cisplatin” value [1] was “capable of forming colonies ex vivo even in the presence of 6000 nM cisplatin” and the “cisplatin resistance of stromal cell clusters” value [2] was “often have cisplatin resistance even in the absence of malignant cells”.
